Experiments:
Type in all cases: binding
Details in all cases: Compound Concentration 10 µM
panel of 442 kinases [1] = biological target: T1, panel of 442 kinases (Homo sapiens, UniProt Q13464)
T1 construct: purchased KINOMEscan
From the text: (§1) We assessed the selectivity of members of this scaffold using the KINOMEscan methodology across a near comprehensive panel of 442 kinases [[18,27]].

panel of 442 kinases [2] = biological target: T2, panel of 442 kinases (Homo sapiens, UniProt O15146)
T2 construct: purchased KINOMEscan
T2 sequence (O15146 24-869): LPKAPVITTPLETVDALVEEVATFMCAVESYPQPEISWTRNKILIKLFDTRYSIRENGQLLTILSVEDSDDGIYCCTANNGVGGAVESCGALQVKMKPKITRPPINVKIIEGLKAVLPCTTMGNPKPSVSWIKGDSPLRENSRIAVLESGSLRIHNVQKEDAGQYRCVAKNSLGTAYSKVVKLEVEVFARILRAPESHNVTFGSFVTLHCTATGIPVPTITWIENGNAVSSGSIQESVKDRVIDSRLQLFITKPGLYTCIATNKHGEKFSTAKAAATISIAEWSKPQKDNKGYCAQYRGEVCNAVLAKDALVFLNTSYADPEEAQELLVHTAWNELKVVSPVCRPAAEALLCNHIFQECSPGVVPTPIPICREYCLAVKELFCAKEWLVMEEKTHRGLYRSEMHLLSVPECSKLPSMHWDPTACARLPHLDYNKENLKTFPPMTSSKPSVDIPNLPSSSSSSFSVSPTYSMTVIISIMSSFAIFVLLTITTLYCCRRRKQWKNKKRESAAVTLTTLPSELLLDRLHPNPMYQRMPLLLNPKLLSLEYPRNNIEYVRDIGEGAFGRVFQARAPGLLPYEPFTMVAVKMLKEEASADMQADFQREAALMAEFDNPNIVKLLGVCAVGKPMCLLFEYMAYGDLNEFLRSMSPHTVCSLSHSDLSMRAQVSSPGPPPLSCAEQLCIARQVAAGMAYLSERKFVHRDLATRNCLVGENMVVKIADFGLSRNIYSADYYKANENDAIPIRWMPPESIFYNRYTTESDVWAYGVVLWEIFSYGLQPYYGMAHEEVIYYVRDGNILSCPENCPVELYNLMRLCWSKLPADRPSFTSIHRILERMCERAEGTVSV
From the text: as §1

panel of 442 kinases [3] = biological target: T3, panel of 442 kinases (Homo sapiens, UniProt Q6DT37)
T3 construct: purchased KINOMEscan
From the text: as §1

T3 sequence (Q6DT37 whole entry): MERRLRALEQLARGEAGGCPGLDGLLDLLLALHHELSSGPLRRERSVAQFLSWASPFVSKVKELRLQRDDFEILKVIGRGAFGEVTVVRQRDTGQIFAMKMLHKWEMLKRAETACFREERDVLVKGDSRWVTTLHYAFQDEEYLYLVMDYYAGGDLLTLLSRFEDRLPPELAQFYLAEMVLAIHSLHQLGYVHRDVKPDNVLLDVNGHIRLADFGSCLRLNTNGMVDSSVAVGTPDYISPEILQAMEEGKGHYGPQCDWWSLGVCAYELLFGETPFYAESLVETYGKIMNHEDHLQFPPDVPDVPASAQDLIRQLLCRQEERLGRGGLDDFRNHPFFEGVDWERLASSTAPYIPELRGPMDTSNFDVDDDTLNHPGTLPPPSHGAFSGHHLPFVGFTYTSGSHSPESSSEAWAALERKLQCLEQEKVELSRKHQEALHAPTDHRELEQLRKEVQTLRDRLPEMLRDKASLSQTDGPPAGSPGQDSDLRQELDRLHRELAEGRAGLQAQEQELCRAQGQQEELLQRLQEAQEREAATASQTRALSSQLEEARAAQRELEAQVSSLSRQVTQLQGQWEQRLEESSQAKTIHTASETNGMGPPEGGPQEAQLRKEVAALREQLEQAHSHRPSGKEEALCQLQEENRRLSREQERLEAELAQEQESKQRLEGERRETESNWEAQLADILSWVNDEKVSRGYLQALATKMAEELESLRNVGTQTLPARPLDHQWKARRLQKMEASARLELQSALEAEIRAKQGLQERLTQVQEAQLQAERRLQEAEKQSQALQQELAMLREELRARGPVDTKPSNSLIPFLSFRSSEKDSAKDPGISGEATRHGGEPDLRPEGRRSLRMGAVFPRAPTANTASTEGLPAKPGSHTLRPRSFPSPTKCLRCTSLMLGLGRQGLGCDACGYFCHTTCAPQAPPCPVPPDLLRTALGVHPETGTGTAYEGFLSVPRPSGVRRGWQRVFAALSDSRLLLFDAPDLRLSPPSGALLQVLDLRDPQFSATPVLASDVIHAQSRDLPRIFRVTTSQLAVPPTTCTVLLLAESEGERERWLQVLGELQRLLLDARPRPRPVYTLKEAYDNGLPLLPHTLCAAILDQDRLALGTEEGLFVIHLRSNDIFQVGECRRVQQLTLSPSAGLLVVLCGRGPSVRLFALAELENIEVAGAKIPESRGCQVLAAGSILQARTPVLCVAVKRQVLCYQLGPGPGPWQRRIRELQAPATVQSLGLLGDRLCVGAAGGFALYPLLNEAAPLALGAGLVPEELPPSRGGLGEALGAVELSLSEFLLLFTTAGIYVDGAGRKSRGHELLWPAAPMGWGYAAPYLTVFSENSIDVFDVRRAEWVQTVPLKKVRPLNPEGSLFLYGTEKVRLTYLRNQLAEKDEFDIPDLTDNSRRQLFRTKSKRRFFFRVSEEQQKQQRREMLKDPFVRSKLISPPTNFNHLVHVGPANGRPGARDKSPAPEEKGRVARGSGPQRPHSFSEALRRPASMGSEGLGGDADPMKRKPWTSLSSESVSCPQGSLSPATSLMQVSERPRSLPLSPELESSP
T1 sequence (Q13464 whole entry): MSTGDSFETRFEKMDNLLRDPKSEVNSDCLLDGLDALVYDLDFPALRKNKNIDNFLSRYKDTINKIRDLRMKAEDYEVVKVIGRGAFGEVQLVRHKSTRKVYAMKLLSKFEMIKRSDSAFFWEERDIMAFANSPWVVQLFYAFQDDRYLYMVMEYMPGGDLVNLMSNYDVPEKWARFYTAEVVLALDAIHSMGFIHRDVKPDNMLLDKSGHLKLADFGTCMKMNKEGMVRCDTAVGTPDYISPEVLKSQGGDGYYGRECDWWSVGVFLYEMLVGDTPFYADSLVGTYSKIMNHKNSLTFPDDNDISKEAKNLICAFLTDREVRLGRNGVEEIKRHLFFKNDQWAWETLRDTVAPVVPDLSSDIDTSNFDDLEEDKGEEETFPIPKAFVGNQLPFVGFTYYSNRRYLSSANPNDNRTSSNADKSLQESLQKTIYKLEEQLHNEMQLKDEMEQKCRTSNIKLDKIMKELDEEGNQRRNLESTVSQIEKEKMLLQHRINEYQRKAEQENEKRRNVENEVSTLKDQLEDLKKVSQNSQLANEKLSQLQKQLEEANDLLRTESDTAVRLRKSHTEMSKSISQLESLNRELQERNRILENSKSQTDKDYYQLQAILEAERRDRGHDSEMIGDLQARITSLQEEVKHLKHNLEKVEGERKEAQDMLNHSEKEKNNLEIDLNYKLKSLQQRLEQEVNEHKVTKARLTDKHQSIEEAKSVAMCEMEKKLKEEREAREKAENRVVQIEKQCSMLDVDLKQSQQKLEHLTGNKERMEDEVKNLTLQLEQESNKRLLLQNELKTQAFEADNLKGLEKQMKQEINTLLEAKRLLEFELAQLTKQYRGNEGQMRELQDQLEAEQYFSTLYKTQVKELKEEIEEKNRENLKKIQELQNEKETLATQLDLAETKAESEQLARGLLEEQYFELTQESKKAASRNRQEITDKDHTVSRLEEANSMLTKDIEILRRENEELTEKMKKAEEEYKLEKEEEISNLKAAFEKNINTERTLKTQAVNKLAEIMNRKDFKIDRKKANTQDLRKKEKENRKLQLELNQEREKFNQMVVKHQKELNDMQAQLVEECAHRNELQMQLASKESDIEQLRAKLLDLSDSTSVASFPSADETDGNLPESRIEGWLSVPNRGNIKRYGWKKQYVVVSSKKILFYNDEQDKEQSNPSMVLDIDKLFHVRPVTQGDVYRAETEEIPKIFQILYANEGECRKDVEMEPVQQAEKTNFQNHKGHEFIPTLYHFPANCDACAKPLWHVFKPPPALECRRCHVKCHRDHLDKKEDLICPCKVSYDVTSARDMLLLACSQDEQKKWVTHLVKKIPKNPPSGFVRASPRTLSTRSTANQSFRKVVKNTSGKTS

| SMILES | KINOMEscan: ROCK1 (panel of 442 kinases [1]) | KINOMEscan: MUSK (panel of 442 kinases [2]) | KINOMEscan: DMPK2 (panel of 442 kinases [3]) |
| --- | --- | --- | --- |
| COc1cc(C(=O)N2CCC(N3CCN(C)CC3)CC2)ccc1Nc1ncc2c(n1)N(C)c1ccccc1C(=O)N2C [15 (LRRK2-IN-1)] | 100 | 99 | 100 |
| COc1cc(C(=O)N2CCC(N3CCN(C)CC3)CC2)ccc1Nc1ncc2c(n1)N1CCc3cccc(c31)C(=O)N2C [Compound 24] | 64 | – | – |
| COc1cc(C(=O)N2CCC(N3CCN(C)CC3)CC2)ccc1Nc1ncc2c(n1)N(C1CCCC1)c1ccccc1C(=O)N2C [Compound 25, 11-cyclopentyl-2-((2-methoxy-4-(4-(4-methylpiperazin-1-yl)piperidine-1-carbonyl)phenyl)amino)-5-methyl-5H-benzo[e]pyrimido[5,4-b][1,4]diazepin-6(11H)-one] | 74 | 100 | 94 |
| CCOc1cc(C(=O)N2CCC(N3CCN(C)CC3)CC2)ccc1Nc1ncc2c(n1)N(C1CCCC1)c1ccccc1C(=O)N2C [Compound 26] | 77 | 100 | 100 |

Reference: publication PMC3914206
